This test relates to primary WT mouse splenic B cells. As to the kind of experiment: H2AX foci immunostaining in activated B-lymphocytes. The test is classed as cell-based. As to conditions: 100 nM. The procedure: FIG. 15A depicts an analysis of primary WT (AID+/+, closed markers) and AID−/− (open markers) murine B cell proliferation under activating conditions (αCD40 and IL-4 on days 0 and 2) and treated with the indicated doses of C-1523 for 4 days. Measurement of cell proliferation was determined by Trypan Blue staining and counting of viable, non-staining, cells via hemocytometer. Data are represented as the mean cell count for each condition. FIG. 15B depicts data from experiments in which primary B cells from A were stained with PI on day 4 and analyzed via flow cytometry for the percentage of cells that were non-viable, PI-positive (PI+). FIG. 15C depicts RT-PCR analysis of AID expression in cultured human cell lines. Water (H2O) and RNA from HEK293T cells were employed as negative controls for template and AID expression, respectively, and human activated B lymphocyte RNA (Stim B) was used as a positive control. GAPDH expression was included as a loading control. […] Viability was determined by Trypan Blue staining and counting via hemocytometer. […] FIG. 15F depicts quantitation of foci observed in AID−/− and WT cells represented in FIG. 15E. […]
To determine whether the cytotoxic effect of C-1523 in AID-expressing cells was associated with DNA damage overload, the accumulation of unrepaired AID-initiated DSBs was measured by H2AX immunoostaining, in activated mouse B-lymphocytes (FIGS. 15E, 15F). […]

`CC(=O)Nc1ccc(/C=C/c2ccc(NC(=S)NC(C)C)cc2S(=O)(=O)O)c(S(=O)(=O)O)c1` [C-1523, (E)-5-acetamido-2-(4-(3-isopropylthioureido)-2-sulfonatostyryl)benzenesulfonate]: the “fraction of cells with supernumerary foci (3-10 per cell)” value is “significant increase”. The H2AX foci result (αCD40 and IL-4) is reported as “accumulation of H2AX foci”.

These data come from patent US10927075B2, “Compositions and methods relating to the treatment of cancer, autoimmune disease, and neurodegenerative disease” (THE JACKSON LABORATORY, priority 2014, dated 2021).
